Source: patent publication US20160175293A1, “PIM KINASE INHIBITOR COMBINATIONS” (priority 2013, published 2016)

Assays:
KMS-12-BM = experiment: mouse xenograft model KMS-12-BM; format: in vivo; conditions: single agent Compound B
MOLM-13 = experiment: Cell Titer Glo viability, dose matrix, Chalice analysis; format: cell-based
Method: (§1) Compound stock was freshly prepared in the appropriate culture medium and manually added to the plates by electronic multichannel pipette in three replicates. […] The viability of cells was assessed after 72 hours of treatment by quantification of cellular ATP levels via Cell Titer Glo (Promega #G7571) according to the manufacturer's protocol. Plates were read on a luminescence plate reader (Victor X4, Perkin Elmer).
(§2) Each compound is diluted threefold times and the dashes below represent the threefold dilution between each number.

MV-4-11 = experiment: as above; format: cell-based
Method: as §1, §2

C[C@@H]1C[C@H](N)C[C@H](c2ccncc2NC(=O)c2ccc(F)c(-c3c(F)cccc3F)n2)C1 [Compound A, N-(4-((1R,3S,5S)-3-amino-5-methylcyclohexyl)pyridin-3-yl)-6-(2,6-difluorophenyl)-5-fluoropicolinamide]
PK exposure at steady state (Day 14 (steady state), 200 mg to 350 mg dose): plateau | PK exposure (Cmax AUC) dose proportionality (dose range of 70 mg-250 mg, Day 1): over proportional | increase of exposure at 500 mg compared to 200 mg to 350 mg dose (steady state): about 2 fold

Cc1nc(NC(=O)N2CCC[C@H]2C(N)=O)sc1-c1ccnc(C(C)(C)C(F)(F)F)c1 [Compound B, (S)-pyrrolidine-1,2-dicarboxylic acid 2-amide 1-({4-methyl-5-[2-(2,2,2-trifluoro-1,1-dimethyl-ethyl)-pyridin-4-yl]-thiazol-2-yl}-amide)]
anti-tumor activity (KMS-12-BM): did not demonstrate in anti-tumor activity

CO[C@@H]1[C@H](N(C)C(=O)c2ccccc2)C[C@H]2O[C@]1(C)n1c3ccccc3c3c4c(c5c6ccccc6n2c5c31)C(=O)NC4 [PKC412, midostaurin]
single agent activity (MOLM-13): active | single agent activity (MV-4-11): active
